The source of these data is BindingDB's records for doi:10.7270/Q2TX3CTT (Broad Institute, 2010).

Counter-ions that a name gives are not always drawn.

Broadly, the EC50 is the midpoint of the concentration-response curve. A lower EC50 goes with higher potency in that assay.

Chain of Glycogen synthase kinase-3 beta (P49841 whole entry): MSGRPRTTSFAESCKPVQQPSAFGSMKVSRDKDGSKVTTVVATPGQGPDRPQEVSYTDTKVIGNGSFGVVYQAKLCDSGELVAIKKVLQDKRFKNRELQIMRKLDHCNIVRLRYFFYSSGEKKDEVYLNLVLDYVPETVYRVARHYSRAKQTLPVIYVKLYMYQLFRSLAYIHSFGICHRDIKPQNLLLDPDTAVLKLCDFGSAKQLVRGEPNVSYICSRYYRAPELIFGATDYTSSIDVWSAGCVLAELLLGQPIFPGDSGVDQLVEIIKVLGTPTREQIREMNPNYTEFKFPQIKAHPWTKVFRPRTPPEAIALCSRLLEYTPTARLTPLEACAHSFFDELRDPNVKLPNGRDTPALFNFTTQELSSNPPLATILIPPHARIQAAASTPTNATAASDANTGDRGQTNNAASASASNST

This assay addresses Glycogen synthase kinase-3 beta (Homo sapiens, UniProt P49841). Put plainly: GSK3beta kinase inhibitor potency, dose response, biochemical, luminescence, cell-free homogeneous, retest (AID 434954).
For `CCn1nc(NC(=O)CC(C)C)c2cc3cccc(C)c3nc21` [SMR000542878], the 50% effective concentration (EC50) is above 300 µM.
Under `COc1ccc(OC)c(CCNC(=O)c2ccc3c(=O)[nH]c4c(C(=O)NC(C)C)sc(=S)n4c3c2)c1` stands above 300 µM; under `Cc1cccn2c(=O)nc(SCC(=O)NC3CCCCC3)nc12`, above 300 µM; under `NS(=O)(=O)c1ccc(NC(=O)CN2C(=O)CCC2=O)cc1` [2-[2,5-bis(oxidanylidene)pyrrolidin-1-yl]-N-(4-sulfamoylphenyl)ethanamide], above 300 µM.
Under `O=C(OCCN1CCOCC1)c1ccc(O)cc1` [SMR000513589] stands above 300 µM; under `Oc1cc(SC(=Nc2ccccc2)Nc2ccccc2)c(O)n1-c1cccc2ccccc12` [MLS000558765], above 300 µM; under `CCOC(=O)c1ccc(NC(=O)CSc2nnc(C3CC3)n2CC)cc1` [MLS000121467], above 300 µM.
Under `COc1cc(/C=C(\C#N)C(=O)c2c[nH]c3ccccc23)cc(OC)c1O` [(E)-3-(4-hydroxy-3,5-dimethoxyphenyl)-2-(1H-indole-3-carbonyl)prop-2-enenitrile] stands 6.57 µM; under `C=CCN1C(=O)C(Cc2ccc(Br)cc2)SC1=NN=Cc1ccco1` (stereo not given), above 300 µM; under `CC(C)CCn1c(CN2CCN(c3cccc(Cl)c3)CC2)nc2c1c(=O)n(C)c(=O)n2C` [SMR000017148], above 300 µM.
`O=C1Nc2cc(C(=O)NCC3CCCO3)ccc2S/C1=C/c1ccccc1F` (stereo not given) displayed an EC50 above 300 µM.
The figure for `CC(=O)c1sc(NC(=O)CCNC(=O)c2ccco2)nc1-c1ccccc1` is 3.03 µM; for `CCN(CC)Cc1c(O)ccc2c1O/C(=C\C=C\c1ccccc1)C2=O` [MLS000779120] it is above 300 µM.
Under `CC1CCN(c2nc3c(N)ncnc3n2[C@@H]2O[C@H](CO)[C@@H](O)[C@H]2O)CC1` stands above 300 µM; under `Nc1ccc2oc(-c3ccccc3Cl)cc(O)c-2c1=O` [6-amino-2-(2-chlorophenyl)-5-hydroxy-1-benzopyran-4-one], above 300 µM; under `COc1ccc(CN(CC(=O)NCc2ccccc2)C(=O)CCC(=O)Nc2ccccn2)cc1`, above 300 µM.
On to `CCCCc1cc(=O)oc2cc(C)cc(OCC(=O)O)c12` [2-(4-butyl-7-methyl-2-oxochromen-5-yl)oxyacetic acid], for which the EC50 is above 300 µM.
For the compound `O=C(c1ccc(Br)cc1)c1coc2ccc(O)cc12` [MLS001178337], the EC50 came to 15.4 µM.
Under `Nc1nc(NCCCN2CCOCC2)nc(Nc2ccccc2F)c1[N+](=O)[O-]` [MLS000769816] stands 1.27 µM; under `COc1cccc(CSc2nnc(-c3ccc(F)cc3)o2)c1` [MLS000077100], 22.5 µM.
Under `CCOc1ccc2c(c1)C(NC(C)=O)C(=O)N2CCN1CCOCC1` (stereo not given) [N-[5-ethoxy-1-(2-morpholin-4-ylethyl)-2-oxo-3H-indol-3-yl]acetamide;hydrochloride] stands above 300 µM; under `CCCN1CCN(CCCNC(=O)Cn2nc(C)n3c(cc4cc(OC)ccc43)c2=O)CC1` [MLS001110985], above 300 µM; under `CN(C)Cc1c(O)ccc2occ(C(=O)c3ccccc3)c12` [SMR000069709], above 300 µM.
The figure for `COc1ccc(NC(=O)c2sc(SC)nc2N)cc1` [SMR000011170] is above 300 µM; for `COC(=O)CSc1nnc(-c2ccncc2)o1` [methyl 2-[(5-pyridin-4-yl-1,3,4-oxadiazol-2-yl)sulfanyl]ethanoate] it is above 300 µM.
Consider `Cc1cc(N2CCN(C(=O)c3ccco3)CC2)c2ccccc2n1` [SMR000460267], for which the EC50 is above 300 µM.
Under `Nc1nc(Nc2ccccc2)nc(N2CCOCC2)c1[N+](=O)[O-]` [SMR000219795] stands 20.3 µM.
Under `Cc1ccc2sc(N3CCN(CCNC(=O)c4ccco4)CC3)nc2c1C` [SMR000811862] stands above 300 µM; under `O=C(COc1cccc2cccnc12)NN=Cc1ccc(O)cc1` [N'-[(4-oxo-1-cyclohexa-2,5-dienylidene)methyl]-2-(8-quinolinyloxy)acetohydrazide], 9.3 µM.
In turn, `CN(C)Cc1c(O)ccc2c(=O)c(-c3ccccc3)c(C(F)(F)F)oc12` displayed an EC50 above 300 µM.
Under `CC(C)=CCc1c(O)c(CC=C(C)C)c2c(c1O)C(=O)CC(c1ccc(O)cc1)O2` (stereo not given) [2-(4-hydroxyphenyl)-6,8-bis(3-methylbut-2-enyl)-5,7-bis(oxidanyl)-2,3-dihydrochromen-4-one] stands above 300 µM.
Consider `Cc1nc2nc(=O)c3c(n2[nH]1)NC1=C(C(=O)CC(C)(C)C1)C3c1ccccc1` (stereo not given) [MLS000084334], for which the EC50 was above 300 µM.
Consider `CN1CCN(C(=O)CCS(=O)(=O)c2cc3c(cc2Cl)NC(=O)CO3)CC1` [SMR000627499], for which the EC50 is above 300 µM.
The figure for `C[n+]1ccccc1C=Cc1cc(Br)ccc1O` [SMR000554448] is above 300 µM; for `COc1ccc(Nc2nc(N)c([N+](=O)[O-])c(N3CCOCC3)n2)cc1` [SMR000434818] it is 13.8 µM.
In turn, `COc1ccc(Nc2nc(Nc3ccc(OC)cc3)nc(-n3[nH]c(=O)c(C)c3C)n2)cc1` [2-[4,6-bis(4-methoxyanilino)-1,3,5-triazin-2-yl]-3,4-dimethyl-1H-pyrazol-5-one] came in with an EC50 above 300 µM.
The compound `Cc1cc(CNC(=O)c2cc(COc3c(F)cccc3F)on2)nn1C` [MLS000734261] yielded an EC50 above 300 µM.
For the compound `COc1ccc(-c2nnc(NC(=O)C3=COCCO3)o2)cc1` [MLS000722006], the EC50 is above 300 µM.
Take `CCc1ccccc1-n1c(O)cc(N2CCc3ccccc32)c1O` [SMR000285101]: the EC50 is above 300 µM.
`Cc1nnc2n(-c3ccccc3)c(=O)c3c4c(sc3n12)CCCC4` [MLS000071277] showed an EC50 above 300 µM.
Take `Cc1ccc2nc(-c3ccccc3)cn2c1` [6-methyl-2-phenyl-imidazo[1,2-a]pyridine;hydrobromide]: the EC50 turned out to be 29 µM.
In turn, `COc1cccc(CNC(=O)C2CCN(S(=O)(=O)c3ccc(-n4cnnn4)cc3)CC2)c1` [SMR000600329] registered an EC50 above 300 µM.
`O=C(O)c1cc(-c2ccc(C=NN3C(=O)C4C5C=CC(CC5)C4C3=O)o2)ccc1Cl` (stereo not given) [SMR000274176] came in with a half-maximal effective concentration (EC50) above 300 µM.
`COc1ccc(C)cc1S(=O)(=O)Nc1cc2c3c(c1)CCN3C(=O)CC2` [SMR000812053] came in with an EC50 above 300 µM.
Under `CCOc1ccc2c(c1)-c1c(ssc1=S)C(C)(C)N2C` [MLS000529181] stands above 300 µM.
Under `Cn1cc([CH+][N-]NC(=O)COc2ccccc2[N+](=O)[O-])c2ccccc21` [N-[(1-methylindol-3-yl)methylideneamino]-2-(2-nitrophenoxy)acetamide] stands above 300 µM.
The figure for `CC(C)=CCc1c(O)cc(O)c2c1O[C@H](c1ccc(O)cc1)CC2=O` is above 300 µM; for `CCOC(=O)c1nnn(-c2nonc2N)c1-c1ccc(OCC)cc1` [1-(4-amino-1,2,5-oxadiazol-3-yl)-5-(4-ethoxyphenyl)-4-triazolecarboxylic acid ethyl ester] it is 20 µM.
In the case of `COc1ccc(C(C)=NNC(=O)CNC(=O)Cc2ccccc2)c(OC)c1` [N-[2-[2-[1-(2,4-dimethoxyphenyl)ethylidene]hydrazinyl]-2-oxoethyl]-2-phenylacetamide], the EC50 was above 300 µM.
Compound `O=C1Nc2cc(C(=O)N3CCC(N4CCCCC4)CC3)ccc2S/C1=C\c1ccccc1` [SMR000635251] returned an EC50 of 16.9 µM. That is a double-digit micromolar value.
The figure for `Nc1nc(Nc2ccccc2)nc(NC2CCCCC2)c1[N+](=O)[O-]` [N4-cyclohexyl-5-nitro-N2-phenylpyrimidine-2,4,6-triamine] is 7.68 µM; for `CC(C)c1ccc(NC2=CC(=O)CC(C)(C)C2)cc1` [SMR000558851] it is above 300 µM.
In turn, `CCN(CC)Cc1c(C(=O)NN=Cc2cccs2)nnn1-c1nonc1N` [1-(4-amino-1,2,5-oxadiazol-3-yl)-5-(diethylaminomethyl)-N-(thiophen-2-ylmethylideneamino)triazole-4-carboxamide] gave an EC50 of 5.16 µM.
`CCOc1ccc2nc(NC(=O)CSc3nc(O)c(C#N)c(-c4ccccc4)n3)sc2c1` registered an EC50 of 34.2 µM.
Under `COCCn1c(SCC(=O)Nc2nc(C)c(Cl)cc2Cl)nc2ccccc21` [N-[3,5-bis(chloranyl)-6-methyl-pyridin-2-yl]-2-[1-(2-methoxyethyl)benzimidazol-2-yl]sulfanyl-ethanamide] stands above 300 µM; under `O=C(c1cccs1)c1coc2ccc(O)c(CN3CCOCC3)c12` [[4-(morpholin-4-ylmethyl)-5-oxidanyl-1-benzofuran-3-yl]-thiophen-2-yl-methanone], above 300 µM.
Under `CC1(C)CC(=O)C=C(Nc2ccccc2O)C1` [3-[(2-hydroxyphenyl)amino]-5,5-dimethyl-cyclohex-2-en-1-one] stands above 300 µM; under `COc1ccc(CCNc2nc(-c3cccnc3)nc3ccccc23)cc1OC` [N-[2-(3,4-dimethoxyphenyl)ethyl]-2-pyridin-3-ylquinazolin-4-amine], above 300 µM; under `O=C1Nc2cc(C(=O)NCCCN3CCCC3)ccc2S/C1=C/c1ccccc1F` [(2E)-2-[(2-fluorophenyl)methylidene]-3-oxo-N-(3-pyrrolidin-1-ylpropyl)-4H-1,4-benzothiazine-6-carboxamide], 6.99 µM.
Consider `O=C(Nc1ccc(-c2nc3ccccc3o2)cc1)c1ccc(N2CCOCC2)c([N+](=O)[O-])c1` [SMR000201361], for which the EC50 was above 300 µM.
The compound `CC1Cc2cc(-c3csc(NC(=O)Cc4ccccc4)n3)ccc2N1S(C)(=O)=O` (stereo not given) [N-[4-(1-Methanesulfonyl-2-methyl-2,3-dihydro-1H-indol-5-yl)-thiazol-2-yl]-2-phenyl-acetamide] yielded an EC50 above 300 µM.
Under `O=C(O)c1ccccc1N=NCc1ccnc2ccccc12` stands above 300 µM.
Under `COc1ccccc1N(CC(=O)N1CCc2ccccc2C1)S(C)(=O)=O` [N-[2-(3,4-dihydro-1H-isoquinolin-2-yl)-2-oxoethyl]-N-(2-methoxyphenyl)methanesulfonamide] stands above 300 µM.
Take `Fc1ccc(Nc2nc(-c3ccncc3)nc3ccccc23)cc1` [(4-Fluoro-phenyl)-(2-pyridin-4-yl-quinazolin-4-yl)-amine]: the EC50 is above 300 µM.
The compound `CC(=O)Nc1ccc(C(=O)OCCCOC(=O)c2ccc(NC(C)=O)cc2)cc1` came in with an EC50 above 300 µM.
